Values joined by “and” are separate entries in the source; they are usually repeats but may differ in a detail not shown here. Equal entries are not always repeated.
How the values were obtained:
Assay type in all cases: cell-based, human
HCT116 (p53+/+) cells [1] = experiment: Q-PCR relative expression levels, HCT116 (p53+/+)
HCT116 (p53+/+) cells [2] = experiment: Cell proliferation assay (WST-1), HCT116 (p53+/+); conditions: absorbance at 450 nm
Description: (§1) After transfection, a cell proliferation assay was conducted each day using EZ-Cytox (Daeilbio, WST-1; #EZ-1000), using the manufacturer’s instructions. For P50429, the cells were seeded at 3000 or 6000 cells per well with an inhibitor concentration of 25 μM and 12.5 to 100 μM, respectively. EZ-Cytox (DoGEN, EZ-3000) was diluted using media and incubated for 30 min. The absorbance was measured at a wavelength of 450 nm using a microplate absorbance reader (Bio-Rad).

HCT116 (p53-/-) cells [3] = experiment: Colony formation assay, HCT116 (p53-/-); conditions: for Colony formation, colony number: KO (p53-/-), 10 days, three experiments and AVERAGE
Description: (§2) The cells were re-suspended with trypsin-EDTA, and 1000 cells were seeded in 35 mm dishes 48 h after transfection. After 10 days, the cells were washed with PBS and fixed in 4% paraformaldehyde for 10 min before being stained with Crystal violet for 30 min and washed with PBS.

p53 = experiment: Western blot analysis of protein levels, HCT116 (p53+/+)
Description: Stained colonies were counted in three independent experiments. The data represent the mean ± SD (*: p < 0.05, **: p < 0.005, and ***: p < 0.0005).
A total of 10–50 μg protein was extracted from cells and used for Western blot analysis. Briefly, the cells were lysed using protein lysis buffer (50 mM Tris–Cl, 150 mM NaCl, 1% Triton X-100, 1 mM EDTA, 200 mM Na3VO4, 1x proteinase inhibitor, pH 7.4) and the protein concentration was measured using a Micro BCA^TM Protein Assay kit (Thermo Scientific), based on the standard curve of BSA. The antibodies used for immunoblot analysis were purchased and assessed for equal loading as follows: rabbit anti-USP7 (#A300-034, dilution ratio 1:1000) and rabbit anti-USP47 (#A301-048A, 1:1000) from Bethyl Laboratories; mouse anti-Flag (#F1804, 1:1000) from Sigma Aldrich; rabbit anti-ubiquitin (#3933, 1:2000) from Cell Signaling; mouse anti-p53 (#sc-126, 1:1000), and mouse anti-HSP90α/β (#sc-13119, 1:5000) from Santa Cruz Biotechnology; rabbit anti-β-actin (#LF-PA0207, 1:5000) from AbFrontier. Samples were analyzed using SDS-PAGE, and chemiluminescence was measured using the Ez-Capture MG imaging system (ATTO Corporation).

HCT116 (p53-/-) cells [4] = experiment: Cell proliferation assay (WST-1), HCT116 (p53-/-); conditions: for Cell viability (WST-1 absorbance): P53-/-, absorbance at 450 nm
Description: as §1

HCT116 (p53-/-) cells [5] = experiment: Q-PCR relative expression levels, HCT116 (p53-/-)
Description: (d) Western blot analysis was
The data represent the mean ± SD (*;p<0.05,
(1 picture or pasted object on this page, not shown here)

HCT116 (p53+/+) cells [6] = experiment: Colony formation assay, HCT116 (p53+/+); conditions: for Colony formation, colony number: WT (p53+/+), 10 days, three experiments and AVERAGE
Description: as §2

USP47i: siRNA targeting USP47 (5′-TGAAAAGGGATGTGCAAAA-3′) (chemistry not given here)
relative expression level of USP7 (Q-PCR) (HCT116 (p53+/+) cells [1]): 1.017
relative expression level of USP47 (Q-PCR) (HCT116 (p53+/+) cells [1]): 0.5092
Cell viability (WST-1 absorbance) (HCT116 (p53+/+) cells [2]; day 1 after transfection): 0.327
Cell viability (WST-1 absorbance) (HCT116 (p53+/+) cells [2]; day 2 after transfection): 0.527
Cell viability (WST-1 absorbance) (HCT116 (p53+/+) cells [2]; day 3 after transfection): 0.7565
Cell viability (WST-1 absorbance) (HCT116 (p53+/+) cells [2]; day 4 after transfection): 0.9428
Colony formation, colony number (HCT116 (p53-/-) cells [3]): 367 and 379 and 377
Colony formation, colony number (HCT116 (p53-/-) cells [3]; mean): 374.333
colony formation compared to control cells (HCT116 (p53-/-) cells [3]; p53-deficient HCT116): did not yield any discernible differences
protein levels of p53 (p53): increased
Cell viability (WST-1 absorbance) (HCT116 (p53-/-) cells [4]; day 1 after transfection): 0.306
Cell viability (WST-1 absorbance) (HCT116 (p53-/-) cells [4]; day 2 after transfection): 0.559
Cell viability (WST-1 absorbance) (HCT116 (p53-/-) cells [4]; day 3 after transfection): 0.8146
Cell viability (WST-1 absorbance) (HCT116 (p53-/-) cells [4]; day 4 after transfection): 1.235
cell viability compared to control cells (HCT116 (p53-/-) cells [4]; p53-deficient HCT116): did not yield any discernible differences
relative expression level of USP7 (Q-PCR) (HCT116 (p53-/-) cells [5]): 0.9689
relative expression level of USP47 (Q-PCR) (HCT116 (p53-/-) cells [5]): 0.3387
decrease in the number of colonies relative to control cells (HCT116 (p53+/+) cells [6]; HCT116 p53+/+, Fig. 1b): approximately 30%
Colony formation, colony number (HCT116 (p53+/+) cells [6]): 271 and 259 and 252
Colony formation, colony number (HCT116 (p53+/+) cells [6]; mean): 260.667

— publication PMC10516900 (Communications Biology, 2023)
